Patent publication US20220257582A1, “TREATMENT FOR SYNUCLEINOPATHIES” (SUN PHARMA ADVANCED RESEARCH COMPANY LIMITED, priority 2019, published 2022)

System: AAV1/2-mediated over-expression of human A53T alpha-synuclein (hA53T-aSYN) in the striatonigral region of female Sprague Dawley (SD) rats
Test: AAV1/2 alpha synuclein rat model of synucleinopathy (neuroprotective potential)
Assay type: in vivo
Conditions: Day 2 to Day 42; for Striatal dopamine levels, operated vs non-operated sides: FIG. 3; for Nigral TH+ve cell counts (operated side): TH+ve neurons in the striatonigral region compared to empty AAV1/2 control animals: immunohistochemistry and stereological cell counting, FIG. 1; for Striatal TH OD (operated vs non-operated sides): FIG. 2
Protocol: Compound I was evaluated in a adeno-associated virus (AAV) AAV1/2 alpha synuclein rat model based upon AAV1/2-mediated delivery and over-expression of human A53T alpha-synuclein (hA53T-aSYN) in the striatonigral region of the midbrain of female Sprague Dawley (SD) rats (Koprich et al, PLoS One. 7; 6(3):e17698, 2011). The study was designed to assess the ability of Compound I to protect dopaminergic neurons from viral vector mediated over-expression of aSYN leading to neurodegeneration in rat model. This model is typically used as a model for aSYN-induced Parkinsonism, but may serve as a model for aSYN-induced neuronal loss in general. AAV1/2 hA53T-aSYN (a viral vector delivering the capability to express human A53T mutant aSYN), or the control AAV1/2 empty vector, was injected stereotactically and unilaterally, into the striatal region of the midbrain. Rats were treated orally with Compound I (melt extrusion suspension), once daily, to provide equivalent doses of Compound I at 15, 30 and 45 mg/kg.
AAV1/2 hA53T-aSYN or empty AAV1/2 vector was administered sterotactically and unilaterally into the right striatal region on Day 1. Starting on Day 2 and continuing daily until Day 42, animals were fasted for 6 hr prior to oral administration of Compound I or vehicle (placebo). Food was reintroduced 60 minutes later. A total of 5 groups of animals, each group N=12, were employed.
Animals were killed for post-mortem assessments on Day 43, at least 18 h after last administration of Compound I or vehicle. Brains were removed along with the terminal blood collection.
As a consequence of localized synucleinopathy caused by the AAV1/2-encoded hA53T aSYN at or near the site of injection, tyrosine hydroxylase (TH)-expressing dopaminergic neurons in the affected striatonigral area degenerate (Koprich et al., PLoS One, 7; 6(3):e17698, 2011). Number of tyrosine hydroxylase positive (TH^+ve) cells within the striatonigral region of the right side of the brain (injected side), were assessed using immunohistochemistry and stereological cell counting. Tyrosine hydroxylase is a critical enzyme involved in dopamine biosynthesis and thus, its presence can be used as a marker of live neurons capable of producing dopamine.

Cc1ccc(C(=O)NNC(=O)c2c(C)cccc2Cl)cc1C#Cc1cnc2ccccc2c1 [Compound I]
Striatal dopamine levels, operated vs non-operated sides (15 mg/kg oral once daily): failed to restore the dopamine biosynthetic capability | Nigral TH+ve cell counts (operated side): TH+ve neurons in the striatonigral region compared to empty AAV1/2 control animals (15 mg/kg oral once daily): significant reduction (p<0.05) | Striatal TH OD (operated vs non-operated sides) (30 mg/kg oral once daily): significant neuroprotective effect | Striatal dopamine levels, operated vs non-operated sides (30 mg/kg oral once daily): failed to restore the dopamine biosynthetic capability | Nigral TH+ve cell counts (operated side): TH+ve neurons in the striatonigral region compared to empty AAV1/2 control animals (30 mg/kg oral once daily): significant reduction (p<0.05) | Striatal TH OD (operated vs non-operated sides) (45 mg/kg oral once daily): significant neuroprotective effect | Striatal dopamine levels, operated vs non-operated sides (45 mg/kg oral once daily): still lower than that from its left counterpart | Nigral TH+ve cell counts (operated side): TH+ve neurons in the striatonigral region compared to empty AAV1/2 control animals (45 mg/kg oral once daily): did not show significant reduction (p>0.05)
